Reference: US20110105738A1, “DIARYL HEPATONOID-BASED COMPOUNDS USEFUL AS VIRUS INHIBITORS” (priority 2008, published 2011)
Where two headings read alike, the source gives them in different places.

Tests used:
[1] = test system: avian influenza virus KBNP-0028 (KCTC 10866BP); assay type: cell-based, A/chicken/Korea/SNU0028/2000(H9N2)
[2] = test system: CEF (chicken embryo fibroblasts)

Structure (SMILES)	antiviral activities (in words) [1]	Number of wells which hemagglutination occurs (among 6 wells) ([1]; 12.5 μg/mL)	Number of wells which hemagglutination occurs (among 6 wells) ([1]; 25 μg/mL)	Number of wells which hemagglutination occurs (among 6 wells) ([1]; 50 μg/mL)	Number of wells which hemagglutination occurs (among 6 wells) ([1]; 100 μg/mL)	Cytotoxicity, MTT assay reading ([2]; 6.25 μg/mL)	Cytotoxicity, MTT assay reading ([2]; 12.5 μg/mL)	Cytotoxicity, MTT assay reading ([2]; 25 μg/mL)	Cytotoxicity, MTT assay reading ([2]; 50 μg/mL)	Cytotoxicity, MTT assay reading ([2]; 100 μg/mL)	Cytotoxicity, MTT assay reading ([2]; 200 μg/mL)
O=C(/C=C/CCc1ccc(O)cc1)CCc1ccc(O)c(O)c1 [12B-AJ-7A-1, 1-(3′,4′-dihydroxyphenyl)-7-(4″-hydroxyphenyl)-4(E)-hepten-3-one]	excellent antiviral activities	3	3	2	0	0.424	0.418	0.347	0.478	0.411	0.531
O=C(/C=C/CCc1ccc(O)c(O)c1)CCc1ccc(O)c(O)c1 [12B-AJ-7B, 1,7-bis(3,4-dihydroxyphenyl)-4(E)-hepten-3-one]	–	3	3	3	3	0.413	0.364	0.345	0.399	0.427	0.560
O=C(CCc1ccc(O)c(O)c1)CC(CCc1ccc(O)cc1)O[C@@H]1OC[C@@H](O)[C@H](O)[C@H]1O (stereo partly drawn) [12B-AJ-11B-1, 1-(3,4-dihydroxyphenyl)-7-(4-hydroxyphenyl)-3-heptanone-5-o-β-D-xylopyranose]	excellent antiviral activities	3	3	3	1	0.535	0.399	0.483	0.487	0.316	0.363
O=C(CCc1ccc(O)cc1)C[C@H](CCc1ccc(O)cc1)O[C@@H]1OC[C@@H](O)[C@H](O)[C@H]1O [12B-AJ-16A, (5S)1,7-bis(4-hydroxyphenyl)-5-o-β-D-xylopyranoside-heptane-3-one]	–	3	3	1	0	0.441	0.427	0.432	0.451	0.302	0.309
